Source: ChEMBL document CHEMBL1123524, “Aminoglycoside antibiotics. 6. Chemical reactions of aminoglycosides with disodium carbenicillin” (1986)
≈ marks a conversion by molar mass, not a printed value.

How the values were obtained:
Escherichia coli [1] = test: Antibacterial activity expressed as MIC value was determined on Escherichia coli A-9632 organism; assay type: functional
Escherichia coli [2] = test: Antibacterial activity expressed as MIC value was determined on Escherichia coli A-22356 organism; assay type: functional
Escherichia coli [3] = test: Antibacterial activity expressed as MIC value was determined on Escherichia coli A-20665 organism; assay type: functional
Escherichia coli [4] = test: Antibacterial activity expressed as MIC value was determined on Escherichia coli A-20683 organism; assay type: functional
Escherichia coli [5] = test: Antibacterial activity expressed as MIC value was determined on Escherichia coli A-20697 organism; assay type: functional
Escherichia coli [6] = test: Antibacterial activity expressed as MIC value was determined on Escherichia coli A-20732 organism; assay type: functional
Escherichia coli [7] = test: Antibacterial activity expressed as MIC value was determined on Escherichia coli A-20895 organism; assay type: functional
Escherichia coli [8] = test: Antibacterial activity expressed as MIC value was determined on Escherichia coli A-21218 organism; assay type: functional
Escherichia coli [9] = test: Antibacterial activity expressed as MIC value was determined on Escherichia coli A-22045 organism; assay type: functional
Enterobacter cloacae [10] = test: Antibacterial activity expressed as MIC value was determined on Enterobacter cloacae A-21006 organism; assay type: functional
Enterobacter cloacae [11] = test: Antibacterial activity expressed as MIC value was determined on Enterobacter cloacae A-21136 organism; assay type: functional
Enterobacter cloacae [12] = test: Antibacterial activity expressed as MIC value was determined on Enterobacter cloacae A-9656 organism; assay type: functional
Klebsiella pneumoniae = test: Antibacterial activity expressed as MIC value was determined on Klebsiella pneumonia A-20468 organism; assay type: functional
Providencia rettgeri [13] = test: ntibacterial activity expressed as MIC value was determined on Proteus rettgeri A-21207 organism; assay type: functional
Providencia stuartii [14] = test: Antibacterial activity expressed as MIC value was determined on Proteus stuartii A-21210 organism; assay type: functional
Providencia rettgeri [15] = test: (§1) Antibacterial activity expressed as MIC value was determined on Proteus rettgeri A-9637 organism; assay type: functional
Proteus mirabilis = test: Antibacterial activity expressed as MIC value was determined on Proteus mirabilis A-9900 organism; assay type: functional
Pseudomonas aeruginosa [16] = test: Antibacterial activity expressed as MIC value was determined on Pseudomonas aeruginosa A-20601 organism; assay type: functional
Pseudomonas aeruginosa [17] = test: Antibacterial activity expressed as MIC value was determined on Pseudomonas aeruginosa A-20653 organism; assay type: functional
Pseudomonas aeruginosa [18] = test: Antibacterial activity expressed as MIC value was determined on Pseudomonas aeruginosa A-20717 organism; assay type: functional
Pseudomonas aeruginosa [19] = test: Antibacterial activity expressed as MIC value was determined on Pseudomonas aeruginosa A-20897 organism; assay type: functional
Pseudomonas aeruginosa [20] = test: Antibacterial activity expressed as MIC value was determined on Pseudomonas aeruginosa A-21294 organism; assay type: functional
Pseudomonas aeruginosa [21] = test: Antibacterial activity expressed as MIC value was determined on Pseudomonas aeruginosa A-21509 organism; assay type: functional
Pseudomonas aeruginosa [22] = test: Antibacterial activity expressed as MIC value was determined on Pseudomonas aeruginosa A-22233 organism; assay type: functional
Pseudomonas aeruginosa [23] = test: Antibacterial activity expressed as MIC value was determined on Pseudomonas aeruginosa A-9834A organism; assay type: functional
Serratia marcescens = test: Antibacterial activity expressed as MIC value was determined on Serratia marcescens A-20019 organism; assay type: functional
Staphylococcus aureus [24] = test: Antibacterial activity expressed as MIC value was determined on Staphylococcus aureus A-20240 organism; assay type: functional
Staphylococcus aureus [25] = test: Antibacterial activity expressed as MIC value was determined on Staphylococcus aureus A-21978 organism; assay type: functional
Staphylococcus aureus [26] = test: Antibacterial activity expressed as MIC value was determined on Staphylococcus aureus A-22058 organism; assay type: functional
Staphylococcus aureus [27] = test: Antibacterial activity expressed as MIC value was determined on Staphylococcus aureus A-22210 organism; assay type: functional
Staphylococcus aureus [28] = test: Antibacterial activity expressed as MIC value was determined on Staphylococcus aureus A-22231 organism; assay type: functional
Staphylococcus aureus [29] = test: Antibacterial activity expressed as MIC value was determined on Staphylococcus aureus A-9537 organism; assay type: functional
Providencia stuartii [30] = test: Antibacterial activity expressed as MIC value was determined on Proteus stuartii A-20894 organism; assay type: functional
Pseudomonas aeruginosa [31] = test: Antibacterial activity expressed as MIC value was determined on Pseudomonas aeruginosa A-20741 organism; assay type: functional
Enterobacter cloacae [32] = test: Antibacterial activity expressed as MIC value was determined on Enterobacter cloacae A-20364 organism; assay type: functional
Pseudomonas aeruginosa [33] = test: Antibacterial activity expressed as MIC value was determined on Pseudomonas aeruginosa A-21508 organism; assay type: functional
Pseudomonas aeruginosa [34] = test: Antibacterial activity expressed as MIC value was determined on Pseudomonas aeruginosa A-9834A organismA-; assay type: functional, organism-based
Pseudomonas aeruginosa [35] = test: Antibacterial activity expressed as MIC value was determined on Pseudomonas aeruginosa A-20601; assay type: functional, organism-based
Providencia rettgeri [36] = test: Antibacterial activity expressed as MIC value was determined on Proteus rettgeri A-21207 organism; assay type: functional
Providencia rettgeri [37] = test: as §1; assay type: functional; remark: listed apart in the source
Staphylococcus aureus [38] = test: Antibacterial activity expressed as MIC value was determined on; assay type: functional, organism-based

| Molecule | MIC (Escherichia coli [1]) [µg/mL] | MIC (Escherichia coli [4]) [µg/mL] | MIC (Escherichia coli [5]) [µg/mL] | MIC (Escherichia coli [6]) [µg/mL] | MIC (Escherichia coli [7]) [µg/mL] | MIC (Escherichia coli [8]) [µg/mL] | MIC (Escherichia coli [9]) [µg/mL] | MIC (Klebsiella pneumoniae) [µg/mL] | MIC (Providencia stuartii [14]) [µg/mL] | MIC (Proteus mirabilis) [µg/mL] | MIC (Pseudomonas aeruginosa [18]) [µg/mL] | MIC (Pseudomonas aeruginosa [19]) [µg/mL] | MIC (Pseudomonas aeruginosa [20]) [µg/mL] | MIC (Pseudomonas aeruginosa [21]) [µg/mL] | MIC (Serratia marcescens) [µg/mL] | MIC (Staphylococcus aureus [24]) [µg/mL] | MIC (Staphylococcus aureus [25]) [µg/mL] | MIC (Staphylococcus aureus [27]) [µg/mL] | MIC (Staphylococcus aureus [28]) [µg/mL] | MIC (Staphylococcus aureus [29]) [µg/mL] | other results |
| --- | --- | --- | --- | --- | --- | --- | --- | --- | --- | --- | --- | --- | --- | --- | --- | --- | --- | --- | --- | --- | --- |
| NC[C@H]1O[C@H](O[C@H]2[C@H](O)[C@@H](O[C@H]3O[C@H](CO)[C@@H](O)[C@H](N)[C@H]3O)[C@H](N)C[C@@H]2N)[C@H](O)[C@@H](O)[C@@H]1O [KANAMYCIN] | 2 (≈ 4.13 µM) | > 125 | 2 (≈ 4.13 µM) | 63 (≈ 130 µM) | 2 (≈ 4.13 µM) | 32 (≈ 66 µM) | 4 (≈ 8.26 µM) | 0.5 (≈ 1.03 µM) | 0.5 (≈ 1.03 µM) | 2 (≈ 4.13 µM) | 32 (≈ 66 µM) | > 125 | 63 (≈ 130 µM) | > 125 | 1 (≈ 2.06 µM) | > 125 | > 125 | > 125 | 8 (≈ 16.5 µM) | 0.05 (≈ 0.103 µM) | MIC (Escherichia coli [2]): 2 µg/mL (≈ 4.13 µM); MIC (Escherichia coli [3]): > 125 µg/mL; MIC (Enterobacter cloacae [10]): > 125 µg/mL; MIC (Enterobacter cloacae [11]): 32 µg/mL (≈ 66 µM); MIC (Enterobacter cloacae [12]): 1 µg/mL (≈ 2.06 µM); MIC (Providencia rettgeri [13]): 2 µg/mL (≈ 4.13 µM); MIC (Providencia rettgeri [15]): 0.5 µg/mL (≈ 1.03 µM); MIC (Pseudomonas aeruginosa [16]): 32 µg/mL (≈ 66 µM); MIC (Pseudomonas aeruginosa [17]): > 125 µg/mL; MIC (Pseudomonas aeruginosa [22]): > 125 µg/mL; MIC (Pseudomonas aeruginosa [23]): 63 µg/mL (≈ 130 µM); MIC (Staphylococcus aureus [26]): 125 µg/mL (≈ 258 µM); MIC (Providencia stuartii [30]): 4 µg/mL (≈ 8.26 µM); MIC (Pseudomonas aeruginosa [31]): > 125 µg/mL; MIC (Enterobacter cloacae [32]): > 125 µg/mL; MIC (Pseudomonas aeruginosa [33]): > 125 µg/mL |
| NC[C@H]1O[C@H](O[C@H]2[C@H](O)[C@@H](O[C@H]3O[C@H](CO)[C@@H](O)[C@H](N)[C@H]3O)[C@H](N)C[C@@H]2N)[C@H](N)C[C@@H]1O [TOBRAMYCIN] | 0.25 (≈ 0.535 µM) | 16 (≈ 34.2 µM) | 0.13 (≈ 0.278 µM) | 8 (≈ 17.1 µM) | 0.5 (≈ 1.07 µM) | 8 (≈ 17.1 µM) | 4 (≈ 8.56 µM) | 0.06 (≈ 0.128 µM) | 2 (≈ 4.28 µM) | 0.5 (≈ 1.07 µM) | 0.13 (≈ 0.278 µM) | 125 (≈ 267 µM) | 16 (≈ 34.2 µM) | 4 (≈ 8.56 µM) | 2 (≈ 4.28 µM) | 0.13 (≈ 0.278 µM) | 32 (≈ 68.4 µM) | 8 (≈ 17.1 µM) | 16 (≈ 34.2 µM) | 0.03 (≈ 0.0642 µM) | MIC (Escherichia coli [2]): 0.25 µg/mL (≈ 0.535 µM); MIC (Escherichia coli [3]): 1 µg/mL (≈ 2.14 µM); MIC (Enterobacter cloacae [10]): 1 µg/mL (≈ 2.14 µM); MIC (Enterobacter cloacae [11]): 16 µg/mL (≈ 34.2 µM); MIC (Enterobacter cloacae [12]): 0.25 µg/mL (≈ 0.535 µM); MIC (Providencia rettgeri [13]): 32 µg/mL (≈ 68.4 µM); MIC (Providencia rettgeri [15]): 0.13 µg/mL (≈ 0.278 µM); MIC (Pseudomonas aeruginosa [16]): 0.13 µg/mL (≈ 0.278 µM); MIC (Pseudomonas aeruginosa [17]): 0.13 µg/mL (≈ 0.278 µM); MIC (Pseudomonas aeruginosa [22]): 125 µg/mL (≈ 267 µM); MIC (Pseudomonas aeruginosa [23]): 0.13 µg/mL (≈ 0.278 µM); MIC (Staphylococcus aureus [26]): 32 µg/mL (≈ 68.4 µM); MIC (Providencia stuartii [30]): 16 µg/mL (≈ 34.2 µM); MIC (Pseudomonas aeruginosa [31]): > 125 µg/mL; MIC (Enterobacter cloacae [32]): 0.5 µg/mL (≈ 1.07 µM); MIC (Pseudomonas aeruginosa [33]): 0.06 µg/mL (≈ 0.128 µM) |
| GENTAMICIN | 0.25 | 32 | 0.25 | 16 | 32 | 0.25 | 63 | 0.25 | 1 | 1 | 4 | > 125 | 1 | 16 | 1 | 0.13 | 0.25 | 32 | 0.13 | 0.06 | MIC (Pseudomonas aeruginosa [34]): 0.25 µg/mL; MIC (Pseudomonas aeruginosa [35]): > 125 µg/mL; MIC (Providencia rettgeri [36]): 8 µg/mL; MIC (Providencia rettgeri [37]): 0.06 µg/mL; MIC (Staphylococcus aureus [38]): 0.13 µg/mL; MIC (Providencia stuartii [30]): 125 µg/mL; MIC (Pseudomonas aeruginosa [31]): > 125 µg/mL |
